Like-named read-outs stand apart in the source and are kept apart here.
How the values were obtained:
MX1 = assay: Inhibition of cell proliferation (GI50), CellTiter 96 AQueous One, MX1 cells; assay type: cell-based; details: Homo sapiens, 48 h incubation, read-out: GI50 (dose for 50% inhibition of cell proliferation)
Procedure: (§1) T-47D and MX1 cells were grown and harvested as in Example 39. An aliquot of 90 μL of cells (2.2×10^4 cells/mL) was added to a well of a 96-well microtiter plate containing 10 μl of a 10% DMSO in RPMI-1640 media solution containing 1 nM to 100 μM of N-(2-methylphenyl)-9-oxo-9H-fluorene-1-carboxamide (0.1 nM to 10 μM final) or other test compound. An aliquot of 90 μL of cells was added to a well of a 96-well microtiter plate containing 10 μL of a 10% DMSO in RPMI-1640 media solution without compound as the control sample for maximal cell proliferation (AMax). The samples were mixed by agitation and then incubated at 37° C. for 48 h in a 5% CO2-95% humidity incubator. After incubation, the samples were removed from the incubator and 20 μL of CellTiter 96 AQUEOUS One Solution Cell Proliferation™ reagent (Promega) was added. The samples were mixed by agitation and incubated at 37° C. for 2-4 h in a 5% CO2-95% humidity incubator. Using an absorbance plate reader (Model 1420 Wallac Instruments), an initial reading (T=0) was made about 1-2 min after addition of the solution, employing absorbance at 490 nm. This determines the possible background absorbance of the test compounds. No absorbance for N-(2-methylphenyl)-9-oxo-9H-fluorene-1-carboxamide was found at 490 nm. After the 2-4 h incubation, the samples were read for absorbance as above (ATest).
(§2) Baseline for GI50 (dose for 50% inhibition of cell proliferation) of initial cell numbers were determined by adding an aliquot of 90 μL of cells or 90 μL of media, respectively, to wells of a 96-well microtiter plate containing 10 μL of a 10% DMSO in RPMI-1640 media solution. The samples were mixed by agitation and then incubated at 37° C. for 0.5 h in a 5% CO2-95% humidity incubator. After incubation, the samples were removed from the incubator and 20 μL of CellTiter 96 AQUEOUS One Solution Cell Proliferation™ reagent (Promega) was added. The samples were mixed by agitation and incubated at 37° C. for 2-4 h in a 5% CO2-95% humidity incubator. Absorbance was read as above, (AStart) defining absorbance for initial cell number used as baseline in GI50 determinations.
(§3) GI50 (dose for 50% inhibition of cell proliferation) is the concentration where [(ATest−Astart)/(AMax−Astart)]=0.5.

T-47D [1] = assay: Inhibition of cell proliferation (GI50), CellTiter 96 AQueous One, T-47D cells; assay type: cell-based; details: Homo sapiens, T47D, 48 h incubation, read-out: GI50 (dose for 50% inhibition of cell proliferation)
Procedure: as §1, §2, §3

T-47D [2] = assay: Caspase cascade activation assay (Ac-DEVD-R110 fluorogenic substrate) in T-47D cells; assay type: cell-based, Human; details: 24 h incubation; for Caspase activity (Ratio): ratio of net RFU (T=3 h) of test compound to control, 0.16 to 10 μM final; for EC50: sigmoidal dose-response, read-out: Caspase potency EC50
Procedure: Human breast cancer cell lines T-47D was grown according to media component mixtures designated by American Type Culture Collection+10% FCS (Invitrogen Corporation), in a 5% CO2-95% humidity incubator at 37° C. T-47D and ZR-75-1 cells were maintained at a cell density between 30 and 80% confluency and for HL-60 at a cell density of 0.1 to 0.6×10^6 cells/mL. Cells were harvested at 600×g and resuspended at 0.65×10^6 cells/mL into appropriate media+10% FCS. An aliquot of 45 μL of cells was added to a well of a 96-well microtiter plate containing 5 μL of a 10% DMSO in RPMI-1640 media solution containing 1.6 to 100 μM of N-(2-methylphenyl)-9-oxo-9H-fluorene-1-carboxamide or other test compound (0.16 to 10 μM final). An aliquot of 45 μL of cells was added to a well of a 96-well microtiter plate containing 5 μL of a 10% DMSO in RPMI-1640 media solution without test compound as the control sample. The samples were mixed by agitation and then incubated at 37° C. for 24 h in a 5% CO2-95% humidity incubator. After incubation, the samples were removed from the incubator and 50 μL of a solution containing 20 μM of N—(Ac-DEVD)-N′-ethoxycarbonyl-R110 fluorogenic substrate (SEQ ID NO:1) (Cytovia, Inc.; U.S. Pat. No. 6,335,429), 20% sucrose (Sigma), 20 mM DTT (Sigma), 200 mM NaCl (Sigma), 40 mM Na PIPES buffer pH 7.2 (Sigma), and 500 μg/mL lysolecithin (Calbiochem) was added. The samples were mixed by agitation and incubated at room temperature. Using a fluorescent plate reader (Model 1420 Wallac Instruments), an initial reading (T=0) was made about 1-2 min after addition of the substrate solution, employing excitation at 485 nm and emission at 530 nm, to determine the background fluorescence of the control sample. After about 3 h of incubation, the samples were read for fluorescence as above (T=3 h).
The Relative Fluorescence Unit values (RFU) were used to calculate the sample readings as follows: RFU(T=3h)−Control RFU(T=0)=Net RFU(T=3h)
The activity of caspase cascade activation was determined by the ratio of the net RFU value for N-(2-methylphenyl)-9-oxo-9H-fluorene-1-carboxamide and other test compounds to that of control samples. The EC50 (nM) was determined by a sigmoidal dose-response calculation (Prism 2.0, GraphPad Software Inc.).

SMILES | GI50 (MX1) | GI50 (T-47D [1]) | Caspase activity (Ratio) (T-47D [2]) | EC50 (T-47D [2]; Homo sapiens, T47D, 24 h) | EC50 (T-47D [2]) | melting point
O=C(Nc1ccccc1-n1cccn1)c1cccc2c1C(=O)c1ccccc1-2 [Example 9, N-(2-(1H-Pyrazol-1-yl)-phenyl)-9-oxo-9H-fluorene-1-carboxamide] | 1000 nM | 451 nM | 7.7 | 979 nM |  | 
CN(C)Cc1ccccc1NC(=O)c1cccc2c1C(=O)c1ccccc1-2 [Example 20, N-(2-Dimethylaminomethylphenyl)-9-oxo-9H-fluorene-1-carboxamide] | 8000 nM | 233 nM | 6.7 |  | 697 nM | 
Cc1ccccc1NC(=O)c1cccc2c1C(=O)c1ccccc1-2 [Example A, N-(2-Methylphenyl)-9-oxo-9H-fluorene-1-carboxamide] | 549 nM | 146 nM | 11.2 | 570 nM |  | 
COc1ccccc1NC(=O)c1cccc2c1C(=O)c1ccccc1-2 [Example 15, N-(2-Methoxyphenyl)-9-oxo-9H-fluorene-1-carboxamide] | 2000 nM | 600 nM | 6.6 | 577 nM |  | 
O=C(Nc1ccccc1-n1cccn1)c1cccc2sc3ccccc3c12 [Example 32, N-(2-(1H-Pyrazol-1-yl)phenyl)-dibenzothiophene-1-carboxamide] | 4350 nM | 2470 nM | 2.7 | 1280 nM |  | 
[N-]=[N+]=Nc1ccccc1NC(=O)c1cccc2c1C(=O)c1ccccc1-2 [Example 27, N-(2-Azido-phenyl)-9-oxo-9H-fluorene-1-carboxamide] | 90 nM | 45 nM | 4.0 | 1400 nM |  | 
O=C(Nc1ccccc1-n1cccn1)c1cccc2c1C(=O)c1cc([N+](=O)[O-])ccc1-2 [Example 29, 7-Nitro-N-(2-(1H-pyrazol-1-yl)phenyl)-9-oxo-9H-fluorene-1-carboxamide] | 150 nM | 166 nM | 5.3 | 231 nM |  | 
O=C(Nc1ccccc1-n1cccn1)c1cccc2c1Cc1ccccc1-2 [Example 12, N-(2-(1H-Pyrazol-1-yl)-phenyl)-9H-fluorene-1-carboxamide] |  |  | 8.9 | 1580 nM |  | 179 to 180 °C
CN(C)c1ccccc1NC(=O)c1cccc2c1C(=O)c1ccccc1-2 [Example 10, N-(2-Dimethylaminophenyl)-9-oxo-9H-fluorene-1-carboxamide] | 736 nM | 665 nM | 8.0 | 1540 nM |  | 152 to 153 °C
Cc1ccccc1NC(=O)c1cccc2c1Cc1ccccc1-2 [Example 13, N-(2-Methylphenyl)-9H-fluorene-1-carboxamide] | 6000 nM | 5040 nM | 6.0 | 1100 nM |  | 
O=C(Nc1ccccc1-n1cc(Br)cn1)c1cccc2c1C(=O)c1cc([N+](=O)[O-])ccc1-2 [Example 38, N-(2-(4-Bromo-1H-pyrazol-1-yl)phenyl)-7-nitro-9-oxo-9H-fluorene-1-carboxamide] | 315 nM | 429 nM | 8.0 | 302 nM |  | 
CN(C(=O)c1cccc2c1C(=O)c1ccccc1-2)c1ccccc1-n1cccn1 [Example 28, N-Methyl-N-(2-(1H-pyrazol-1-yl)phenyl)-9-oxo-9H-fluorene-1-carboxamide] | > 10000 nM | > 10000 nM | 1.2 | > 10000 nM |  | 
O=C(Nc1ccccc1N1CCOCC1)c1cccc2c1C(=O)c1ccccc1-2 [Example 1, N-(2-Morpholinophenyl)-9-oxo-9H-fluorene-1-carboxamide] |  |  | 3.1 | 5680 nM |  | 
[N-]=[N+]=Nc1ccc2c(c1)C(=O)c1c(C(=O)Nc3ccccc3-n3cccn3)cccc1-2 [Example 37, 7-Azido-N-(2-(1H-pyrazol-1-yl)phenyl)-9-oxo-9H-fluorene-1-carboxamide] | 200 nM | 415 nM | 3.0 | 681 nM |  | 
N#Cc1ccccc1NC(=O)c1cccc2c1C(=O)c1ccccc1-2 [N-(2-Cyanophenyl)-9-oxo-9H-fluorene-1-carboxamide] |  |  | 2.3 | 2000 nM |  | 

— patent US20080096848A1, “Substituted N-Aryl-9-Oxo-9H-Fluorene-1-Carboxamides and Analogs as Activators of Caspases and Inducers of Apoptosis” (CYTOVIA INC., priority 2004, published 2008)
